Source: article PMC11748363, “Antimicrobial and Antiproliferative Properties of 2‐Phenyl‐N‐(Pyridin‐2‐yl)acetamides” (Chemical Biology & Drug Design, 2025)
pIC50: −log10 of the molar value. In brackets after ≈: the same amount, converted by molar mass. Where two headings read alike, the source gives them in different places.

Columns and labels:
HepG2 cell line = experiment: Cytotoxicity CellTiter 96, HepG2; assay type: cell-based, human; conditions: 24 h incubation, ^c compound precipitated in the testing medium, ^d over the limit of tested concentrations
[1] = test system: Pseudomonas aeruginosa CCM 3955, ATCC 27853; experiment: Antibacterial microdilution broth MIC, PA; assay type: cell-based
[2] = test system: Aspergillus fumigatus ATCC 204305; experiment: Antifungal microdilution broth MIC, AF
[3] = test system: Lichtheimia corymbifera CCM 8077; experiment: Antifungal microdilution broth MIC, LC
[4] = test system: Staphylococcus epidermidis CCM 4418, ATCC 12228; experiment: Antibacterial microdilution broth MIC, SE; assay type: cell-based
[5] = test system: Candida parapsilosis CCM 8260, ATCC 22019; experiment: Antifungal microdilution broth MIC, CP; conditions: Lodderomyces parapsilosis
[6] = test system: Staphylococcus aureus CCM 4223, ATCC 29213; experiment: Antibacterial microdilution broth MIC, SA; assay type: cell-based; conditions: Staphylococcus aureus
[7] = test system: Acinetobacter baumannii DSM 30007, ATCC 19606; experiment: Antibacterial microdilution broth MIC, ACI; assay type: cell-based
[8] = test system: Mycobacterium tuberculosis H37Ra; experiment: Antimycobacterial microdilution broth MIC (resazurin), Mtb H37Ra; assay type: cell-based; conditions: for MIC: Mycobacterium tuberculosis, H37RA, read-out: MIC Mtb H37Ra
[9] = test system: Staphylococcus aureus subsp. aureus CCM 4750, ATCC 43300 (MRSA); experiment: Antibacterial microdilution broth MIC, MRSA; assay type: cell-based; conditions: Staphylococcus aureus
[10] = test system: Mycolicibacterium aurum DSM 43999; experiment: Antimycobacterial microdilution broth MIC (resazurin), M. aurum; assay type: cell-based; conditions: DSM43999, read-out: MIC M. aurum
[11] = test system: Candida krusei CCM 8271, ATCC 6258; experiment: Antifungal microdilution broth MIC, CK; conditions: Pichia kudriavzevii
HK‐2 cell line = experiment: Cytotoxicity CellTiter 96, HK-2 normal cell line; assay type: cell-based; conditions: Homo sapiens, 24 h incubation
Procedure: The cytotoxicity of final compounds was determined in human hepatocellular carcinoma cell line HepG2. Additional testing of selected compounds was performed on human epithelial kidney cancer cell line A498, human prostate cancer cell line PC‐3, human glioblastoma cell line U‐87 MG, and normal human proximal tubule cell line HK‐2.
1.4. Cytotoxicity determination […]
For subculturing, the cells were harvested after trypsin/EDTA (Sigma–Aldrich) treatment at 37 °C. To evaluate cytotoxicity, the cells treated with the tested substances were used as experimental groups whereas untreated HepG2 cells served as controls. The cells were seeded in density 10,000 cells per well in a 96 well plate. The next day the cells were treated with each of the tested substances dissolved in DMSO. The tested substances were […]
in triplicates according to their solubility. Simultaneously, the controls representing 100% cell viability, 0% cell viability (the cells treated with 10% DMSO), no cell control and vehiculum controls were also prepared in triplicates. After 24 h incubation in a humidified atmosphere containing 5% CO2 at […], the reagent from the kit CellTiter 96 AQueous One Solution Cell Proliferation Assay (CellTiter 96; PROMEGA, Fitchburg, USA) was added. After 2h incubation at 37 °C, absorbance of samples was recorded at 490 nm (TECAN, Infinita M200, Austria). A standard toxicological parameter IC50 was calculated by nonlinear regression from a semilogarithmic plot of incubation concentration versus percentage of absorbance relative to untre ated controls using GraphPad Prism 8 software.
Human epithelial kidney carcinoma A498 cell line, obtained from American Type Culture Collection (ATCC, Manassas, VA, USA, catalogue No.: HTB -44), was cultured in RPMI medium, Human normal kidney proximal tubule HK-2 cell line obtained from ATCC (ATCC, Manassas, VA, USA, catalogue No.:
CRL-2190) was cultured in DMEM High Glucose medium, Human prostate adenocarcinoma PC-3 cell line, obtained from ATCC (Manassas, VA, USA, catalogue No.: 90112714), was cultured in a Kaighn's Modification of Ham's F-12 Medium and human glioblastoma astrocytoma U-87 MG cell line, obtained from ECACC (ECACC, Salisbury, UK, catalogue No.: 89081402) was cultured in DMEM High Glucose medium. All cultures were supplemented with 10% fetal bovine serum, 1% non-essential amino acids (A498, HK-2 and U-87 MG), 1% sodium pyruvate (A498, HK-2 and U-87 MG) and 2 mM L-glutamine. […]
Simultaneously, the controls representing 100% cell viability, 0% cell viability (the cells treated with 10% DMSO), no cell control and vehiculum controls were also prepared in triplicates. […] Eventually, a colorimetric assay reagent CellTiter 96 AQueous One Solution Cell Proliferation Assay was added, and absorption was measured.

[12] = test system: Aspergillus flavus CCM 8363; experiment: Antifungal microdilution broth MIC, AFla
[13] = ATCC204305, 24 h, read-out: MIC AF 24h
[14] = ATCC204305, 48 h, read-out: MIC AF 48h
[15] = CCM8077, 24 h, read-out: MIC LC 24h
[16] = CCM8077, 48 h, read-out: MIC LC 48h
[17] = CCM8363, 24 h, read-out: MIC AFla 24h
[18] = CCM8363, 48 h, read-out: MIC AFla 48h

COc1ccc(CC(=O)Nc2cccc(Cl)n2)cc1 [Compound 12, 2-(4-methoxyphenyl)-N-(6-chloropyridin-2-yl)acetamide]
pIC50 (HepG2 cell line): 3.29
pIC50 (HepG2 cell line; Homo sapiens, HepG2, 24 h): < 3.30
MIC ([1]; 24 h, read-out: MIC PA 24h): > 500 µM
MIC ([1]; 48 h, read-out: MIC PA 48h): > 500 µM
MIC [2, 13]: > 500 µM
MIC [2, 14]: > 500 µM
MIC [3, 15]: > 500 µM
MIC [3, 16]: > 500 µM
MIC ([4]; 24 h, read-out: MIC SE 24h): 500 µM (≈ 138 µg/mL)
MIC ([4]; 48 h, read-out: MIC SE 48h): > 500 µM
MIC ([5]; 24 h, read-out: MIC CP 24h): > 500 µM
MIC ([5]; 48 h, read-out: MIC CP 48h): > 500 µM
MIC ([6]; 24 h, read-out: MIC SA 24h): 500 µM (≈ 138 µg/mL)
MIC ([6]; 48 h, read-out: MIC SA 48h): 500 µM (≈ 138 µg/mL)
MIC ([7]; 24 h, read-out: MIC ACI 24h): > 500 µM
MIC ([7]; 48 h, read-out: MIC ACI 48h): > 500 µM
MIC ([8]; Calculated from MIC (μg/mL)): 56.3 µM
MIC [8]: 15.6 µg/mL
SI (selectivity index) ([8]; SI = HepG2 IC50 (μM)/MIC MtbH37Ra (μM), calculated for compounds with MIC ≤ 31.25 μg/mL): 9.2
MIC ([9]; 24 h, read-out: MIC MRSA 24h): 500 µM (≈ 138 µg/mL)
MIC ([9]; 48 h, read-out: MIC MRSA 48h): > 500 µM
MIC [10]: 62.5 µg/mL (≈ 226 µM)
MIC ([11]; 24 h, read-out: MIC CK 24h): > 500 µM
MIC ([11]; 48 h, read-out: MIC CK 48h): > 500 µM
pIC50 (HK‐2 cell line): < 3.60
MIC [12, 17]: > 500 µM
MIC [12, 18]: > 500 µM

O=C(Cc1cccc(Cl)c1)Nc1ccc(Cl)cn1 [Compound 17, 2-(3-chlorophenyl)-N-(5-chloropyridin-2-yl)acetamide]
pIC50 (HepG2 cell line; Homo sapiens, HepG2, 24 h): 3.95
MIC ([1]; 24 h, read-out: MIC PA 24h): > 500 µM
MIC ([1]; 48 h, read-out: MIC PA 48h): > 500 µM
MIC [2, 13]: > 500 µM
MIC [2, 14]: > 500 µM
MIC [3, 15]: > 500 µM
MIC [3, 16]: > 500 µM
MIC ([4]; 24 h, read-out: MIC SE 24h): > 500 µM
MIC ([4]; 48 h, read-out: MIC SE 48h): > 500 µM
MIC ([5]; 24 h, read-out: MIC CP 24h): > 500 µM
MIC ([5]; 48 h, read-out: MIC CP 48h): > 500 µM
MIC ([6]; 24 h, read-out: MIC SA 24h): > 500 µM
MIC ([6]; 48 h, read-out: MIC SA 48h): > 500 µM
MIC ([7]; 24 h, read-out: MIC ACI 24h): > 500 µM
MIC ([7]; 48 h, read-out: MIC ACI 48h): > 500 µM
MIC ([8]; Calculated from MIC (μg/mL)): 445 µM
MIC [8]: 125 µg/mL
MIC ([9]; 24 h, read-out: MIC MRSA 24h): > 500 µM
MIC ([9]; 48 h, read-out: MIC MRSA 48h): > 500 µM
MIC [10]: 250 µg/mL (≈ 889 µM)
MIC ([11]; 24 h, read-out: MIC CK 24h): > 500 µM
MIC ([11]; 48 h, read-out: MIC CK 48h): > 500 µM
pIC50 (HK‐2 cell line): 3.86
MIC [12, 17]: > 500 µM
MIC [12, 18]: > 500 µM

O=C(Cc1ccccc1C(F)(F)F)Nc1cccc(Cl)n1 [Compound 24]
pIC50 (HepG2 cell line; Homo sapiens, HepG2, 24 h): 4.19
MIC ([1]; 24 h, read-out: MIC PA 24h): > 500 µM
MIC ([1]; 48 h, read-out: MIC PA 48h): > 500 µM
MIC [2, 13]: > 500 µM
MIC [2, 14]: > 500 µM
MIC [3, 15]: > 500 µM
MIC [3, 16]: > 500 µM
MIC ([4]; 24 h, read-out: MIC SE 24h): > 500 µM
MIC ([4]; 48 h, read-out: MIC SE 48h): > 500 µM
MIC ([5]; 24 h, read-out: MIC CP 24h): > 500 µM
MIC ([5]; 48 h, read-out: MIC CP 48h): > 500 µM
MIC ([6]; 24 h, read-out: MIC SA 24h): > 500 µM
MIC ([6]; 48 h, read-out: MIC SA 48h): > 500 µM
MIC ([7]; 24 h, read-out: MIC ACI 24h): > 500 µM
MIC ([7]; 48 h, read-out: MIC ACI 48h): > 500 µM
MIC ([8]; Calculated from MIC (μg/mL)): > 1590 µM
MIC [8]: > 500 µg/mL
MIC ([9]; 24 h, read-out: MIC MRSA 24h): > 500 µM
MIC ([9]; 48 h, read-out: MIC MRSA 48h): > 500 µM
MIC [10]: > 500 µg/mL
MIC ([11]; 24 h, read-out: MIC CK 24h): > 500 µM
MIC ([11]; 48 h, read-out: MIC CK 48h): > 500 µM
pIC50 (HK‐2 cell line): 3.61
MIC [12, 17]: > 500 µM
MIC [12, 18]: > 500 µM

O=C(Cc1cccc(C(F)(F)F)c1)Nc1ccc(Cl)cn1 [Compound 26]
pIC50 (HepG2 cell line; Homo sapiens, HepG2, 24 h): 4.28
MIC ([1]; 24 h, read-out: MIC PA 24h): > 500 µM
MIC ([1]; 48 h, read-out: MIC PA 48h): > 500 µM
MIC [2, 13]: > 500 µM
MIC [2, 14]: > 500 µM
MIC [3, 15]: > 500 µM
MIC [3, 16]: > 500 µM
MIC ([4]; 24 h, read-out: MIC SE 24h): > 500 µM
MIC ([4]; 48 h, read-out: MIC SE 48h): > 500 µM
MIC ([5]; 24 h, read-out: MIC CP 24h): > 500 µM
MIC ([5]; 48 h, read-out: MIC CP 48h): > 500 µM
MIC ([6]; 24 h, read-out: MIC SA 24h): > 500 µM
MIC ([6]; 48 h, read-out: MIC SA 48h): > 500 µM
MIC ([7]; 24 h, read-out: MIC ACI 24h): > 500 µM
MIC ([7]; 48 h, read-out: MIC ACI 48h): > 500 µM
MIC ([8]; Calculated from MIC (μg/mL)): > 1590 µM
MIC [8]: > 500 µg/mL
MIC ([9]; 24 h, read-out: MIC MRSA 24h): > 500 µM
MIC ([9]; 48 h, read-out: MIC MRSA 48h): > 500 µM
MIC [10]: > 500 µg/mL
MIC ([11]; 24 h, read-out: MIC CK 24h): > 500 µM
MIC ([11]; 48 h, read-out: MIC CK 48h): > 500 µM
pIC50 (HK‐2 cell line): 4.52
MIC [12, 17]: > 500 µM
MIC [12, 18]: > 500 µM
